Measurements: patent US12144864B2, “Tubulysins and protein-tubulysin conjugates” (Regeneron Pharmaceuticals, Inc., priority 2018, dated 2024)
Like-named read-outs stand apart in the source and are kept apart here.

Legend:
HEK293 cells = assay: Cell-based killing assay of payloads (CellTiter-Glo), HEK293 cells; parameters: species or system human; settings: 5-day incubation; for IC50: Homo sapiens, HEK293, 120 h
Description: (§1) To test the ability of the disclosed tubulysin payloads to kill human cell lines, an in vitro cytotoxicity assay was performed. In vitro cytotoxicity of the disclosed payloads, as well as reference compounds, were evaluated using the CellTiter-Glo Assay Kit (Promega, Cat #G7573), in which the quantity of ATP present is used to determine the number of viable cells in culture. For the assay, C4-2, HEK293, or T47D cells were seeded at 4000 cells/well on Nunclon white 96-well plates in complete growth medium (DME high glucose:Ham's F12 at 4:1, 10% FBS, 100 units/ml Penicillin, 100 ug/ml streptomycin, 53 ug/ml glutatmine, 10 ug/ml insulin, 220 ng/ml biotin, 12.5 pg/ml T3, 12.5 ug/ml Adenine, 4 ug/ml transferrin for C42 cells; DME high glucose, 10% FBS, 100 units/ml Penicillin, 100 ug/ml streptomycin, 53 ug/ml glutatmine for HEK293; RPMI, 10% FBS, 100 units/ml Penicillin, 100 ug/ml streptomycin, 53 ug/ml glutatmine, 10 ug/ml insulin, 10 mM HEPEs, 200 nM Sodium Pyruvate for T47D cells) and grown overnight at 37° C. in 5% CO2. For cell viability curves, 1:3 serially diluted payloads were added to the cells at final concentrations ranging from 100 nM to […], including a no treatment control group, and were then incubated for 5 days. After the 5-day incubation, cells were incubated at room temperature with 100 μL of CellTiter-Glo reagents for 10 minutes. Relative luminescence units (RLU) were determined on a Victor plate reader (PerkinElmer). The IC50 values were determined from a four-parameter logistic equation over a 10-point response curve (GraphPad Prism). All IC50 values are expressed in molar (M) concentration. The percent cell killing (% kill) at the maximum concentration tested was estimated from the following formula (100−% viable cells). Averages±standard deviation (SD) are included where replicate experiments were performed.

T47D cells = assay: Cell-based killing assay of payloads (CellTiter-Glo), T47D cells; parameters: species or system human; settings: 5-day incubation; for IC50: Homo sapiens, T47D, 120 h
Description: as §1

C4-2 cells = assay: Cell-based killing assay of payloads (CellTiter-Glo), C4-2 cells; parameters: species or system human; settings: 5-day incubation; for IC50: Homo sapiens, C4-2, 120 h, average ± SD where replicates; for C4-2 % Kill: at maximum concentration tested (100 − % viable cells)
Summary of the method: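 Viability readout is CellTiter-Glo luminescence after a 5-day exposure to 10-point, threefold-diluted payloads spanning 100 nM–[…], following overnight attachment of 4000 cells/well. Four-parameter logistic fit gives IC50 in M; % kill taken at highest concentration tested.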

HCT15 cells = assay: cells; format: cell-based, human; settings: HCT15 cells; for HCT-15 + verapamil % Kill / HCT-15 % Kill: maximum % cell killing
Summary of the method: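 Five-day exposure of 1000 HCT15 cells/well to threefold payload dilutions, run both plus and minus verapamil (5 ug/mL) in RPMI with 10% FBS. ATP luminescence (CellTiter-Glo) gives viability; four-parameter logistic fit of 10 points yields IC50, and 100 − % viable at highest dose gives % kill.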

H69AR cells = assay: Cytotoxicity in panel of MDR cell lines, H69AR (72 h and 144 h); format: cell-based, human; settings: for IC50: Homo sapiens
Summary of the method: (§2)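 Four-parameter logistic fitting of 10-point CellTiter-Glo curves gives the IC50, expressed molar. Cells, including resistant H69AR, MES-SA/MX2 and HL60/MX2 plus HCT-15, are plated at 1000/well and exposed to payloads for 72 h and 144 h.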

HCT-15 cells = assay: Cytotoxicity in panel of MDR cell lines, HCT-15 (72 h and 144 h); format: cell-based, human; settings: for IC50: Homo sapiens
Summary of the method: as §2

MES-SA/MX2 cells = assay: Cytotoxicity in panel of MDR cell lines, MES-SA/MX2 (72 h and 144 h); format: cell-based, human; settings: for IC50: Homo sapiens
Summary of the method: as §2

HL60/MX2 cells = assay: Cytotoxicity in panel of MDR cell lines, HL60/MX2 (72 h and 144 h); format: cell-based, human; settings: for IC50: Homo sapiens
Summary of the method: as §2

[1] = at maximum concentration tested
[2] = with 5 ug/mL Verapamil, read-out: HCT-15 + verapamil IC50
[3] = Homo sapiens, HCT-15, without Verapamil, read-out: HCT-15 IC50
[4] = 72 h incubation, read-out: H69AR IC50 72 h
[5] = 144 h incubation, read-out: H69AR IC50 144 h
[6] = 72 h incubation, read-out: HCT-15 IC50 72 h
[7] = 144 h incubation, read-out: HCT-15 IC50 144 h
[8] = 72 h incubation, read-out: MES-SA/MX2 IC50 72 h
[9] = 144 h incubation, read-out: MES-SA/MX2 IC50 144 h
[10] = 72 h incubation, read-out: HL60/MX2 IC50 72 h
[11] = 144 h incubation, read-out: HL60/MX2 IC50 144 h

Structure (SMILES) | IC50 (C4-2 cells) [nM] | C4-2 % Kill (C4-2 cells) [%] | HCT-15 + verapamil % Kill (HCT15 cells; with 5 ug/mL Verapamil) [%] | IC50 (HCT15 cells; [2]) [nM] | HCT-15 % Kill (HCT15 cells; without Verapamil) [%] | IC50 (HCT15 cells; [3]) [nM] | H69AR % Kill 72 h (H69AR cells; 72 h incubation) [%] | H69AR % Kill 144 h (H69AR cells; 144 h incubation) [%] | IC50 (H69AR cells; [4]) [nM] | IC50 (H69AR cells; [5]) [nM] | HCT-15 % Kill 72 h (HCT-15 cells; 72 h incubation) [%] | HCT-15 % Kill 144 h (HCT-15 cells; 144 h incubation) [%] | IC50 (HCT-15 cells; [6]) [nM] | IC50 (HCT-15 cells; [7]) [nM] | MES-SA/MX2 % Kill 72 h (MES-SA/MX2 cells; 72 h incubation) [%] | MES-SA/MX2 % Kill 144 h (MES-SA/MX2 cells; 144 h incubation) [%] | IC50 (MES-SA/MX2 cells; [8]) [nM] | IC50 (MES-SA/MX2 cells; [9]) [nM] | HL60/MX2 % Kill 72 h (HL60/MX2 cells; 72 h incubation) [%] | HL60/MX2 % Kill 144 h (HL60/MX2 cells; 144 h incubation) [%] | also measured
CCCCCCNC(=O)O[C@H](C[C@H](C(C)C)N(OCCCCCC)C(=O)[C@@H](NC(=O)[C@H]1CCCCN1C)[C@@H](C)CC)c1nc(C(=O)N[C@@H](Cc2ccc(O)cc2)C[C@H](C)C(=O)O)cs1 [VIe, (2S,4R)-5-(4-Hydroxyphenyl)-4-(2-((9R,11R)-9-isopropyl-8-((2S,3S)-3-methyl-2-((R)-1-methylpiperidine-2-carboxamido)pentanoyl)-13-oxo-7,12-dioxa-8,14-diazaicosan-11-yl)thiazole-4-carboxamido)-2-methylpentanoic acid] | 8.22 | 94.4 ± 0.2 | 98.8 | 0.295 | 36.6 | > 100 |  |  |  |  |  |  |  |  |  |  |  |  |  |  | IC50 (HEK293 cells): 4.77 nM; HEK293 % Kill (HEK293 cells; [1]): 76.7%; IC50 (T47D cells): 2.27 nM; T47D % Kill (T47D cells; [1]): 72.7%
CCCCCCN(C(=O)[C@@H](NC(=O)[C@H]1CCCCN1C)[C@@H](C)CC)[C@H](C[C@@H](OC(C)=O)c1nc(C(=O)N[C@@H](Cc2ccc(N)c(F)c2)CC(C)(C)C(=O)O)cs1)C(C)C [IVvB, 4-({2-[(1R,3R)-1-(Acetyloxy)-3-[(2S,3S)—N-hexyl-3-methyl-2-{[(2R)-1-methylpiperidin-2-yl]formamido}pentanamido]-4-methylpentyl]-1,3-thiazol-4-yl}formamido)-5-(4-amino-3-fluorophenyl)-2,2-dimethylpentanoic acid] | 0.0215 | 94.6 | 97.7 | 0.015 | 97.3 | 0.025 | 96.9 | 99.1 | 0.0599 | 0.158 | 97.7 | 99.6 | < 0.015 | 0.0228 | 99.1 | 99.9 | 0.0456 | 0.0658 | 98.2 | 99.8 | IC50 (HL60/MX2 cells; [10]): < 0.015 nM; IC50 (HL60/MX2 cells; [11]): < 0.015 nM
CCCCCON(C(=O)[C@@H](NC(=O)[C@H]1CCCCN1C)[C@@H](C)CC)[C@H](C[C@@H](OC(=O)NC)c1nc(C(=O)N[C@@H](Cc2ccc(N)cc2)CC(C)(C)C(=O)O)cs1)C(C)C [VIh, (S)-5-(4-Aminophenyl)-4-(2-((5R,7R)-7-isopropyl-8-((2S,3S)-3-methyl-2-((R)-1-methylpiperidine-2-carboxamido)pentanoyl)-3-oxo-4,9-dioxa-2,8-diazatetradecan-5-yl)thiazole-4-carboxamido)-2,2-dimethylpentanoic acid] | 0.159 | 93.9 | 97.8 | 0.0716 | 99 | 0.263 | 96.3 | 99.1 | 1.07 | 1.73 | 97.9 | 99.7 | 0.366 | 0.515 | 98.5 | 99.8 | 1.26 | 2.72 | 97.6 | 99.9 | IC50 (HL60/MX2 cells; [10]): 0.0391 nM; IC50 (HL60/MX2 cells; [11]): < 0.015 nM
CC[C@H](C)[C@H](NC(=O)[C@H]1CCCCN1C)C(=O)N(CCCCc1cn(Cc2ccccc2)nn1)[C@H](C[C@@H](OC(C)=O)c1nc(C(=O)N[C@@H](Cc2ccc(N)cc2)CC(C)(C)C(=O)O)cs1)C(C)C [IVo, (S)-4-(2-((1R,3R)-1-Acetoxy-3-((2S,3S)—N-(4-(1-benzyl-1H-1,2,3-triazol-4-yl)butyl)-3-methyl-2-((R)-1-methylpiperidine-2-carboxamido)pentanamido)-4-methylpentyl)thiazole-4-carboxamido)-5-(4-aminophenyl)-2,2-dimethylpentanoic acid] | 0.262 | 93.4 | 97.6 | 0.109 | 98.6 | 0.37 | 96.2 | 99.1 | 0.779 | 1.27 | 97.3 | 99.7 | 0.247 | 0.348 | 98.9 | 99.9 | 1.12 | 2.96 | 98.1 | 100 | IC50 (HL60/MX2 cells; [10]): 0.0376 nM; IC50 (HL60/MX2 cells; [11]): < 0.015 nM
[2H]c1cc(C[C@@H](CC(C)(C)C(=O)O)NC(=O)c2csc([C@@H](C[C@H](C(C)C)N(CCCCCC)C(=O)[C@@H](NC(=O)[C@H]3CCCCN3C)[C@@H](C)CC)OC(C)=O)n2)cc([2H])c1N [IVs, (S)-4-(2-((1R,3R)-1-Acetoxy-3-((2S,3S)—N-hexyl-3-methyl-2-((R)-1-methylpiperidine-2-carboxamido)pentanamido)-4-methylpentyl)thiazole-4-carboxamido)-5-(4-aminophenyl-3,5-d2)-2,2-dimethylpentanoic acid] | 0.0499 | 93.8 | 98.8 | 0.0459 | 99.1 | 0.108 | 96.8 | 99.4 | 0.161 | 0.281 | 97.6 | 99.7 | 0.0371 | 0.0501 | 99.2 | 100 | 0.102 | 0.21 | 98.4 | 100 | IC50 (HL60/MX2 cells; [10]): < 0.015 nM; IC50 (HL60/MX2 cells; [11]): < 0.015 nM
CC[C@H](C)[C@H](NC(=O)[C@H]1CCCCN1C)C(=O)N(OCCCO)[C@H](C[C@@H](OC(C)=O)c1nc(C(=O)N[C@@H](Cc2ccc(O)cc2)C[C@H](C)C(=O)O)cs1)C(C)C [Vk, (2S,4R)-4-(2-((1R,3R)-1-Acetoxy-3-((2S,3S)—N-(3-hydroxypropoxy)-3-methyl-2-((R)-1-methylpiperidine-2-carboxamido)pentanamido)-4-methylpentyl)thiazole-4-carboxamido)-5-(4-hydroxyphenyl)-2-methylpentanoic acid] |  |  | 83 | 42.7 | 41.5 | ≥ 100 |  |  |  |  |  |  |  |  |  |  |  |  |  |  | IC50 (HEK293 cells): > 100 nM; IC50 (T47D cells): > 100 nM
